Measured values: patent US8815837B2, “Respiratory disease treatment” (Pulmagen Therapeutics (Inflammation) Limited, priority 2008, dated 2014)

Tests used:
[1] = cited from earlier work
[2] = test system: Tobacco Smoke Induced Pulmonary Inflammation; experiment: Pre-clinical mouse model of COPD inflammation: tobacco smoke induced pulmonary inflammation, BAL cell counts; type: in vivo; settings: mice, intranasal, BAL 24 h after final TS exposure
Source text: Pre-Clinical Mouse Model of COPD Inflammation—Tobacco Smoke Induced Pulmonary Inflammation
Protocols for the exposure of mice to TS, obtaining bronchoalveolar lavage (BAL), preparation of cytospin slides for differential cell counts are as outlined below.
Exposure of Mice to TS Daily for 4 or 11 Consecutive Days
In this exposure protocol, mice were exposed in groups of 5 in individual clear polycarbonate chambers (27 cm×16 cm×12 cm). The TS from the cigarettes was allowed to enter the exposure chambers at a flow rate of 100 ml/min. In order to minimise any potential problems caused by repeated exposure to a high level of TS (6 cigarettes), the exposure of the mice to TS was increased gradually over the exposure period to a maximum of 6 cigarettes. The exposure schedule used for 4 days was as follows:
The exposure schedule used for 11 days exposure was as follows:
A further group of mice were exposed to air on a daily basis for equivalent lengths of time as controls (no TS exposure).
Bronchoalveolar Lavage (BAL) Analysis
Bronchoalveolar lavage was performed as follows: the trachea was cannulated using a Portex nylon intravenous cannula (pink luer fitting) shortened to approximately 8 mm. Phosphate buffered saline (PBS) was used as the lavage fluid. A volume of 0.4 ml was gently instilled and withdrawn 3 times using a 1 ml syringe and then placed in an Eppendorf tube and kept on ice prior to subsequent determinations.
Lavage fluid was separated from cells by centrifugation and the supernatant decanted and frozen for subsequent analysis. The cell pellet was re-suspended in a known volume of PBS and total cell numbers calculated by counting a stained (Turks stain) aliquot under a microscope using a haemocytometer.
Differential Cell Counts were Performed as Follows:
The residual cell pellet was diluted to approximately 10^5 cells per ml. A volume of 500 μl was placed in the funnel of a cytospin slide and centrifuged for 8 min at 800 rpm. The slide was air dried and stained using ‘Kwik-Diff’ solutions (Shandon) as per the proprietary instructions. When dried and cover-slipped, differential cells were counted using light microscopy. Up to 400 cells were counted by unbiased operator using light microscopy. Cells were differentiated using standard morphometric techniques.
Rodents such as mice and rats are obligate nasal breathers thus oral delivery of test materials (such as therapeutic agents) for inhalation will not produce good lung exposure. As a consequence, delivery of therapeutic agents to the lungs in rodents is generally achieved by intra-nasal, intra-tracheal or inhalation by whole body aerosol exposure in a chamber.
The chamber method utilises large amounts of test material and is generally reserved for inhalation toxicology studies rather than pharmacological efficacy studies. Intra-tracheal administration is a very efficient delivery method as almost all of the test material is delivered to the lungs, but this is quite an invasive technique. For studies in the mouse particularly, it is also quite technically demanding as the diameter of the trachea is quite small. The intranasal route is less invasive than the intra-tracheal route and so is particularly suitable for repeat dosing studies such as the 4-11 day mouse model described below.
The control group of mice received vehicle 1 hr prior to being exposed to air daily for a maximum of 50 minutes per day. BAL was performed 24 h following the final TS exposure. All compounds were dosed as the HCl salt with doses corrected as base.
[…]
Data Management and Statistical Analysis
All results are presented as individual data points for each animal and the mean value was calculated for each group.

rodent diabetes model = settings: oral administration; cited from earlier work
PPARγ receptor = molecular target: T1, PPARγ receptor (Homo sapiens, UniProt P37231); settings: page 13 of WO2007100027; cited from earlier work
T1 sequence (P37231 1-505): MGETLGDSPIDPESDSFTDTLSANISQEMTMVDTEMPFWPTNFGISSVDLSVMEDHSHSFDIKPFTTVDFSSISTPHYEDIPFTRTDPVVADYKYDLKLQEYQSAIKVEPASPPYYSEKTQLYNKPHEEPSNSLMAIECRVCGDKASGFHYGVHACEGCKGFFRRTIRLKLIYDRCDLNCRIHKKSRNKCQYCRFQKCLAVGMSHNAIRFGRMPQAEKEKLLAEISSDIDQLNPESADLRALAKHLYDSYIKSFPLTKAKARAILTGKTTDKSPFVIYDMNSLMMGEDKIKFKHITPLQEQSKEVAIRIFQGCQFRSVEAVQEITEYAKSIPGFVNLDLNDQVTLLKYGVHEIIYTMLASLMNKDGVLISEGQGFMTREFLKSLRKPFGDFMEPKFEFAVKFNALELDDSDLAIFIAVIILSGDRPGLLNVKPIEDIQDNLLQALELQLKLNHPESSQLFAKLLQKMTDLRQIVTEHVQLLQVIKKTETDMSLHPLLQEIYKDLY

[3] = 3 μg/kg, pioglitazone experiment, FIG. 1
[4] = 3 μg/kg, pioglitazone experiment, FIG. 2
[5] = 10 μg/kg, rosiglitazone experiment, FIG. 3
[6] = 10 μg/kg, rosiglitazone experiment, FIG. 4
[7] = 1 μg/kg, pioglitazone experiment, FIG. 1
[8] = 1 μg/kg, pioglitazone experiment, FIG. 2
[9] = 3 μg/kg, rosiglitazone experiment, FIG. 3
[10] = 3 μg/kg, rosiglitazone experiment, FIG. 4

Row | Structure (SMILES) | BAL cell influx (total BAL cells) induced by TS [2, 3] | BAL neutrophil numbers induced by TS exposure [2, 4] | BAL cell influx (total BAL cells) induced by TS [2, 5] | BAL neutrophil numbers induced by TS exposure [2, 6] | further results
1 | CCc1ccc(CCOc2ccc(CC3SC(=O)NC3=O)cc2)nc1 (racemic) [Racemic pioglitazone, 5-{4-[2-(5-ethylpyridin-2-yl)ethoxy]benzyl}-1,3-thiazolidine-2,4-dione, reference compound] | significantly inhibited | significantly inhibited | – | – | interconversion of the two enantiomers in vivo [1]: interconvert in vivo; activity of racemate versus individual enantiomers in a rodent diabetes model (rodent diabetes model): no difference in activity
2 | CN(CCOc1ccc(CC2SC(=O)NC2=O)cc1)c1ccccn1 (racemic) [Racemic rosiglitazone, 5-(4-{2-[methyl (pyridin-2-yl)amino]ethoxy]benzyl}-1,3-thiazolidine-2,4-dione, reference compound] | – | – | significantly inhibited | significantly inhibited | –
3 | CCc1ccc(CCOc2ccc(C[C@H]3SC(=O)NC3=O)cc2)nc1.Cl [Example 4, (5R)-5-{4-[2-(5-ethylpyridin-2-yl)ethoxy]benzyl}-1,3-thiazolidine-2,4-dione hydrochloride] | significantly inhibited | significantly inhibited | – | – | BAL cell influx (total BAL cells) induced by TS [2, 7]: significantly inhibited; BAL neutrophil numbers induced by TS exposure [2, 8]: significantly inhibited
4 | CCc1ccc(CCOc2ccc(C[C@@H]3SC(=O)NC3=O)cc2)nc1.Cl [Example 6, (5S)-5-{4-[2-(5-ethylpyridin-2-yl)ethoxy]benzyl}-1,3-thiazolidine-2,4-dione hydrochloride] | failed to inhibit | ineffective | – | – | BAL cell influx (total BAL cells) induced by TS [2, 7]: failed to inhibit; BAL neutrophil numbers induced by TS exposure [2, 8]: ineffective
5 | CN(CCOc1ccc(C[C@H]2SC(=O)NC2=O)cc1)c1ccccn1.Cl [Example 8, (5R)-5-(4-{2-[methyl(pyridin-2-yl)amino]ethoxy}benzyl)-1,3-thiazolidine-2,4-dione hydrochloride] | – | – | significantly inhibited | significantly inhibited | BAL cell influx (total BAL cells) induced by TS [2, 9]: significantly inhibited; BAL neutrophil numbers induced by TS exposure [2, 10]: significantly inhibited
6 | CN(CCOc1ccc(C[C@@H]2SC(=O)NC2=O)cc1)c1ccccn1.Cl [Example 9, (5S)-5-(4-{2-[methyl(pyridin-2-yl)amino]ethoxy}benzyl)-1,3-thiazolidine-2,4-dione hydrochloride monohydrate] | – | – | failed to inhibit | ineffective | BAL cell influx (total BAL cells) induced by TS [2, 9]: failed to inhibit; BAL neutrophil numbers induced by TS exposure [2, 10]: ineffective
7 | COc1ccc2nc(COc3ccc(CC4SC(=O)NC4=O)cc3)n(C)c2c1 (centres unmarked) [Rivoglitazone] | – | – | – | – | receptor binding affinity, 5S versus 5R enantiomer (PPARγ receptor): 5S enantiomer also has higher receptor binding affinity than the 5R enantiomer
